Legend:
ECL P99 [1] = assay: Fractional Inhibitory Concentration Index, checkerboard assay; assay type: cell-based, E. cloacae
Procedure: (§1) Method 2: Determination of the Fractional Inhibitory Concentration Index
(§2) Serial 2-fold dilutions of each antibiotic tested were prepared in ca-MHB and mixed in each well of a 96-well microtiter plate so that each row (and column) contained a fixed amount of one agent and increasing amounts of the second agent. The range of drug concentrations used in the checkerboard analysis was such that the dilution range encompassed the MIC for each drug used in the analysis. Broth microdilution plates were inoculated with each strain (Table 3) to yield 5.10^5 CFU/mL in a 100 μL final volume and incubated for 18 h at 35° C. in ambient air. Assays including Fosfomycin were supplemented with 25 μg/ml of Glucose-6-phosphate. MICs were determined after overnight incubation, and the fractional inhibitory concentration (FIC) index was calculated for each well. The FIC index (FICI) was calculated for each combination according to the equation FICI=FICa+FICb=(MIC of drug A in combination/MIC of drug A alone)+(MIC of drug B in combination/MIC of drug B alone). The FICI was interpreted as follows: synergy, FICI […]; indifference, 0.5<FIC<4; and antagonism, FICI>4. The checkerboard assays were performed in duplicate.

KPN UFR68 = assay: as above; assay type: cell-based, K. pneumoniae
Procedure: as §1, §2

ECO 190317 [2] = assay: as above; assay type: cell-based, E. coli
Procedure: as §1, §2

ECL P99 [3] = assay: MIC, broth microdilution (CLSI), substance alone or ATB combined with compound at 4 or 8 μg/mL; assay type: cell-based, E. cloacae; settings: Enterobacter cloacae; substance alone; ECL P99; read-out: MIC
Procedure, shortened: (§3)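 Each strain received 5·10^5 CFU/mL of log-phase cells in ca-MHB over DMSO-spotted compound or compound-antibiotic combinations. After 16-20 h at 35° C, growth was scored visually.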

SAU 29213 = assay: as above; assay type: cell-based, S. aureus; settings: for MIC ATB combined with compound: compound @4 μg/ml, SAU 29213
Procedure, shortened: as §3

ECO 190317 [4] = assay: as above; assay type: cell-based, E. coli; settings: Escherichia coli; substance alone; ECO 190317; read-out: MIC
Procedure, shortened: as §3

ECO UFR39 = assay: as above; assay type: cell-based, E. coli; settings: Escherichia coli; substance alone; ECO UFR39; read-out: MIC
Procedure, shortened: as §3

KPN BAA-1898 = assay: as above; assay type: cell-based, K. pneumoniae; settings: Klebsiella pneumoniae, BAA1898; substance alone; KPN BAA-1898; read-out: MIC
Procedure, shortened: as §3

KPN UFR42 = assay: as above; assay type: cell-based, K. pneumoniae; settings: Klebsiella pneumoniae; substance alone; KPN UFR42; read-out: MIC
Procedure, shortened: as §3

SPN 49619 = assay: as above; assay type: cell-based, S. pneumoniae; settings: SPN 49619; for MIC ATB combined with compound: compound @4 μg/ml
Procedure, shortened: as §3

PAE UFR48 [5] = assay: Fractional Inhibitory Concentration Index, checkerboard assay; assay type: cell-based, P. aeruginosa
Procedure: as §1, §2

PAE UFR90 [6] = assay: as above; assay type: cell-based, P. aeruginosa
Procedure: as §1, §2

PAE UFR48 [7] = assay: MIC, broth microdilution (CLSI), substance alone or ATB combined with compound at 4 or 8 μg/mL; assay type: cell-based, P. aeruginosa; settings: PAE UFR48; for MIC ATB combined with compound: compound @4 μg/ml
Procedure, shortened: as §3

PAE UFR90 [8] = assay: as above; assay type: cell-based, P. aeruginosa; settings: PAE UFR90; for MIC ATB combined with compound: compound @4 μg/ml
Procedure, shortened: as §3

PAE 105250 = assay: as above; assay type: cell-based, P. aeruginosa; settings: PAE 105250; for MIC ATB combined with compound: compound @4 μg/ml
Procedure, shortened: as §3

[9] = Pseudomonas aeruginosa, substance alone, read-out: MIC

NC[C@@H]1C(c2ncco2)=C[C@@H]2CN1C(=O)N2OS(=O)(=O)[O-].O=C(O)C(F)(F)F.[Na+] [Example 5, Sodium and 2,2,2-trifluoroacetate [(2S,5R)-2-(azaniumylmethyl)-7-oxo-3-oxazol-2-yl-1,6-diazabicyclo[3.2.1]oct-3-en-6-yl] Sulfate] gave an FIC index min (ECL P99 [1]; compound +ATM) of 0.23, an FIC index min (ECL P99 [1]; compound +FEP) of 0.23 and an FIC index min (ECL P99 [1]; compound +FOS) of 0.16. The FIC index min (ECL P99 [1]; compound +MEM) was 0.63, the FIC index min (ECL P99 [1]; compound +PIP) was 0.32 and the FIC index min (KPN UFR68; compound +ATM) was no more than 0.008. The FIC index min (KPN UFR68; compound +FEP) was no more than 0.0098, the FIC index min (KPN UFR68; compound +FOS) was 0.203 and the FIC index min (KPN UFR68; compound +MEM) was 0.020. For the same compound, the FIC index min (KPN UFR68; compound +PIP) was no more than 0.035, the FIC index min (ECO 190317 [2]; compound +ATM) was 0.52 and the FIC index min (ECO 190317 [2]; compound +FEP) was 0.25. It also gave an FIC index min (ECO 190317 [2]; compound +FOS) of 0.66, an FIC index min (ECO 190317 [2]; compound +MEM) of 0.76 and an FIC index min (ECO 190317 [2]; compound +PIP) of no more than 0.56. The MIC (ECL P99 [3]) was no more than 0.016 µg/mL, the “MIC ATB combined with compound” value (SAU 29213; ATB ATM) was greater than 32 µg/mL and the “MIC ATB combined with compound” value (SAU 29213; ATB FEP) was 2 µg/mL. The “MIC ATB combined with compound” value (SAU 29213; ATB FOS) was 0.5 µg/mL, the “MIC ATB combined with compound” value (SAU 29213; ATB MEM) was “<=0.031 μg/mL” and the “MIC ATB combined with compound” value (SAU 29213; ATB PIP) was 2 µg/mL. For the same compound, the MIC (SAU 29213; Staphylococcus aureus, substance alone, SAU 29213 (MSSA 29213), read-out: MIC) was greater than 32 µg/mL, the MIC (ECO 190317 [4]) was no more than 0.016 µg/mL and the MIC (ECO UFR39) was no more than 0.016 µg/mL. For the same compound, the MIC (KPN BAA-1898) was 16 µg/mL, the MIC (KPN UFR42) was 32 µg/mL and the “MIC ATB combined with compound” value (SPN 49619; ATB ATM) was greater than 32 µg/mL. For the same compound, the “MIC ATB combined with compound” value (SPN 49619; ATB FEP) was 0.063 µg/mL, the “MIC ATB combined with compound” value (SPN 49619; ATB FOS) was 16 µg/mL and the “MIC ATB combined with compound” value (SPN 49619; ATB MEM) was 0.063 µg/mL. The “MIC ATB combined with compound” value (SPN 49619; ATB PIP) was 0.5 µg/mL, the MIC (SPN 49619; Streptococcus pneumoniae, substance alone, read-out: MIC) was greater than 32 µg/mL and the FIC index min (PAE UFR48 [5]; compound +ATM) was 0.34. For the same compound, the FIC index min (PAE UFR48 [5]; compound +FEP) was 0.33, the FIC index min (PAE UFR48 [5]; compound +FOS) was 0.88 and the FIC index min (PAE UFR48 [5]; compound +MEM) was 0.63. For the same compound, the FIC index min (PAE UFR48 [5]; compound +PIP) was 0.52, the FIC index min (PAE UFR90 [6]; compound +ATM) was 0.76 and the FIC index min (PAE UFR90 [6]; compound +FEP) was 0.69. It also gave an FIC index min (PAE UFR90 [6]; compound +FOS) of 0.69, an FIC index min (PAE UFR90 [6]; compound +MEM) of 0.81 and an FIC index min (PAE UFR90 [6]; compound +PIP) of 0.56. For the same compound, the “MIC ATB combined with compound” value (PAE UFR48 [7]; ATB ATM) was less than 0.031 µg/mL, the “MIC ATB combined with compound” value (PAE UFR48 [7]; ATB FEP) was less than 0.031 µg/mL and the “MIC ATB combined with compound” value (PAE UFR48 [7]; ATB FOS) was 4 µg/mL. The “MIC ATB combined with compound” value (PAE UFR48 [7]; ATB MEM) was less than 0.031 µg/mL, the “MIC ATB combined with compound” value (PAE UFR48 [7]; ATB PIP) was less than 0.031 µg/mL and the MIC (PAE UFR48 [7]; [9]) was 2 µg/mL. For the same compound, the “MIC ATB combined with compound” value (PAE UFR90 [8]; ATB ATM) was less than 0.031 µg/mL, the “MIC ATB combined with compound” value (PAE UFR90 [8]; ATB FEP) was less than 0.031 µg/mL and the “MIC ATB combined with compound” value (PAE UFR90 [8]; ATB FOS) was less than 0.125 µg/mL. The “MIC ATB combined with compound” value (PAE UFR90 [8]; ATB MEM) was less than 0.031 µg/mL, the “MIC ATB combined with compound” value (PAE UFR90 [8]; ATB PIP) was less than 0.031 µg/mL and the MIC (PAE UFR90 [8]; [9]) was 0.25 µg/mL. The “MIC ATB combined with compound” value (PAE 105250; ATB ATM) was less than 0.031 µg/mL, the “MIC ATB combined with compound” value (PAE 105250; ATB FEP) was less than 0.031 µg/mL and the “MIC ATB combined with compound” value (PAE 105250; ATB FOS) was 16 µg/mL. For the same compound, the “MIC ATB combined with compound” value (PAE 105250; ATB MEM) was less than 0.031 µg/mL, the “MIC ATB combined with compound” value (PAE 105250; ATB PIP) was less than 0.031 µg/mL and the MIC (PAE 105250; [9]) was 4 µg/mL.
